# Starred links: 1 amine or outer side, 2 acyl side, 3 side chain; linkers in the order of their positions; H or OH if unused. Non-standard residues stand in square brackets, D forms with d. Residues, ends and D or L forms follow the SMILES beside them. Pen = CC(C)(S)[C@H](N)C(=O)O; Suc = O=C(CCC(=O)[*:2])[*:1]; Tle = CC(C)(C)[C@H](N)C(=O)O; Dap = NC[C@H](N)C(=O)O
# Target: Hepatitis C virus serine protease, NS3/NS4A (Hepatitis C virus, UniProt A3EZI9+D2K2A8)
# Experiment: The apparent Ki value against NS3-4Apep protease
# Assay type: protein-complex assay, Hepacivirus hominis
# Conditions: read-out: Ki app
# Hepatitis C virus serine protease, NS3/NS4A, sequence (D2K2A8 whole entry): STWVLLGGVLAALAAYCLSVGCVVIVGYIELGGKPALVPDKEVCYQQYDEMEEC
# Hepatitis C virus serine protease, NS3/NS4A, sequence (A3EZI9 whole entry): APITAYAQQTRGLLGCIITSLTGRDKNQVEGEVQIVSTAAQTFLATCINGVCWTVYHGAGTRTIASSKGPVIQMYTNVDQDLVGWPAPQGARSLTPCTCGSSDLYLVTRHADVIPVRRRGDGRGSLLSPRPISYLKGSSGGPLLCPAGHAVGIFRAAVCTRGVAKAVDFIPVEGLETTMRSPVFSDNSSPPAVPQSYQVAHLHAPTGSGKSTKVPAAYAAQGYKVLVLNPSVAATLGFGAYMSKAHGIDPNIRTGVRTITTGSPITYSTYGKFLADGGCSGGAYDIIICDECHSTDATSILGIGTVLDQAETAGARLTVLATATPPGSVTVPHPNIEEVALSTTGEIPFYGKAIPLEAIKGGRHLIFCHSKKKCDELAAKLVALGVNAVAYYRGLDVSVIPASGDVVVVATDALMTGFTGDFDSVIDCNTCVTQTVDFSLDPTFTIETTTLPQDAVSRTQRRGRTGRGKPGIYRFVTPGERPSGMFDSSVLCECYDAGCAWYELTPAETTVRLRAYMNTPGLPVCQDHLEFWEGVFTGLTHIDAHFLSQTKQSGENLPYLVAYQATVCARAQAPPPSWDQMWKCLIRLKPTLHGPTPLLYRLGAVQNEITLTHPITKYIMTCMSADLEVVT
row,Molecule,Ki [µM]
1,"CC[C@H](C)[C@H](NC(=O)C(CC(=O)O)NC(=O)[C@H](CC(=O)O)NC(C)=O)C(=O)N[C@H](C(=O)N1CCC[C@H]1C(=O)N[C@@H](CS)C(=O)O)C(C)C (single isomer, unassigned)",0.6
2,H-DDIVPC-OH,14

# Target: NS3 (Hepatitis C virus, UniProt A3EZJ3)
# Sequence (A3EZJ3 whole entry): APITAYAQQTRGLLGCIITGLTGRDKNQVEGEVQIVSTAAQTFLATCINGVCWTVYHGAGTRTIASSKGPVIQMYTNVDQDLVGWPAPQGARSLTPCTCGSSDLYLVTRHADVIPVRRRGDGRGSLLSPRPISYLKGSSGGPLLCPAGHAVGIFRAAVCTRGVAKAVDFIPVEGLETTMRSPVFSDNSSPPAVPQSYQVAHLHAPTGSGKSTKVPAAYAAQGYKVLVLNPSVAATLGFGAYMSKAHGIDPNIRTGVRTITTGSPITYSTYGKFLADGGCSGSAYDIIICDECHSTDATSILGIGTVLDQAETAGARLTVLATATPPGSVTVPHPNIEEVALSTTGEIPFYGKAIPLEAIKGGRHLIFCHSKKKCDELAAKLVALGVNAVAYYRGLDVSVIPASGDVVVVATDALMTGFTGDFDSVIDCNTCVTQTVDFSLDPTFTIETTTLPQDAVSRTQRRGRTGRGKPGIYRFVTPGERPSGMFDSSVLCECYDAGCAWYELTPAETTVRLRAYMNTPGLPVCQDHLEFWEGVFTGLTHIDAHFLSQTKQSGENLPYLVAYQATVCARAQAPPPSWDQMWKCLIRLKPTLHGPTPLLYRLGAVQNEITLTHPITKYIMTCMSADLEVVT
# Experiment: Inhibitory activity against NS3-4A pep protease
# Design: species or system Hepacivirus hominis
# Conditions: not given
row,Molecule,IC50 [µM]
1,Ac-DDIVPM-OH,500
2,CC[C@H](C)[C@H](NC(=O)[C@@H](NC(=O)[C@H](CC(=O)O)NC(C)=O)C(C)C)C(=O)N[C@H](C(=O)N1CCC[C@H]1C(=O)N[C@@H](CS)C(=O)O)C(C)C,52
3,Ac-DAIVPC-OH,140
4,CC[C@H](C)[C@H](NC(=O)[C@H](CC(=O)O)NC(=O)[C@H](CC(=O)O)NC(C)=O)C(=O)N[C@H](C(=O)N1CCC[C@H]1C(=O)N[C@@H](CN)C(=O)O)C(C)C (Ac-DDIVP[Dap]-OH),> 1000
5,CC[C@H](C)[C@H](NC(=O)[C@H](CC(=O)O)NC(=O)[C@H](CC(=O)O)NC(C)=O)C(=O)N[C@H](C(=O)N1CCC[C@H]1C(=O)N[C@@H](CS)C(=O)O)C(C)C [listing 1 of 2 here],28
6,Ac-DDIAPC-OH,890
7,CC[C@H](C)[C@H](NC(=O)[C@H](CC(=O)O)NC(=O)[C@H](C)NC(C)=O)C(=O)N[C@H](C(=O)N1CCC[C@H]1C(=O)N[C@@H](CS)C(=O)O)C(C)C,200
8,Ac-DIVPC-OH,130
9,"CC[C@H](C)[C@H](NC(=O)[C@H](CC(=O)O)NC(=O)[C@H](CC(=O)O)NC(C)=O)C(=O)N[C@H](C(=O)N1CCC[C@H]1C(=O)NC(CS)C(=O)O)C(C)C (single isomer, unassigned)",330
10,CC[C@@H](C)[C@@H](NC(=O)[C@H](CC(=O)O)NC(=O)[C@H](CC(=O)O)NC(C)=O)C(=O)N[C@H](C(=O)N1CCC[C@H]1C(=O)N[C@@H](CS)C(=O)O)C(C)C,800
11,"CC[C@H](C)[C@H](NC(=O)C(CC(=O)O)NC(=O)[C@H](CC(=O)O)NC(C)=O)C(=O)N[C@H](C(=O)N1CCC[C@H]1C(=O)N[C@@H](CS)C(=O)O)C(C)C (single isomer, unassigned)",4
12,Ac-DDIVAC-OH,93
13,CC[C@H](C)[C@H](NC(=O)[C@H](CC(=O)O)NC(=O)[C@H](CC(=O)O)NC(C)=O)C(=O)N[C@H](C(=O)N1CCC[C@H]1C(=O)N[C@@H](CS)C(=O)O)C(C)C [listing 2 of 2 here],> 1000
14,H-DDIVPC-OH,71
15,Ac-DDIVPA-OH,710
16,CC[C@H](C)[C@H](NC(=O)CCC(=O)O)C(=O)N[C@H](C(=O)N1CCC[C@H]1C(=O)N[C@@H](CS)C(=O)O)C(C)C (Suc-IVPC-OH),830
17,Ac-DDIVPS-OH,> 1000
18,"CC[C@H](C)[C@H](NC(=O)C(CC(=O)O)NC(=O)[C@H](C)NC(C)=O)C(=O)N[C@H](C(=O)N1CCC[C@H]1C(=O)N[C@@H](CS)C(=O)O)C(C)C (single isomer, unassigned)",200
19,CC[C@H](C)[C@H](NC(=O)[C@H](CC(=O)O)NC(=O)CCC(=O)O)C(=O)N[C@H](C(=O)N1CCC[C@H]1C(=O)N[C@@H](CS)C(=O)O)C(C)C,33
20,CC[C@H](C)[C@H](NC(=O)[C@@H](NC(=O)[C@H](CC(=O)O)NC(C)=O)C(C)(C)C)C(=O)N[C@H](C(=O)N1CCC[C@H]1C(=O)N[C@@H](CS)C(=O)O)C(C)C (Ac-D[Tle]IVPC-OH),20
21,"CC[C@H](C)[C@H](NC(=O)C(NC(=O)[C@H](CC(=O)O)NC(C)=O)C(C)C)C(=O)N[C@H](C(=O)N1CCC[C@H]1C(=O)N[C@@H](CS)C(=O)O)C(C)C (single isomer, unassigned)",7.5
22,CC[C@H](C)[C@H](NC(=O)[C@H](CC(=O)O)NC(=O)[C@H](CC(=O)O)NC(C)=O)C(=O)N[C@H](C(=O)N1CCC[C@H]1C(=O)N[C@@H](CSC)C(=O)O)C(C)C (Ac-DDIVPC(Me)-OH),160
23,"CC[C@H](C)[C@H](NC(=O)[C@H](CC(=O)O)NC(=O)[C@H](CC(=O)O)NC(C)=O)C(=O)NC(C(=O)N1CCC[C@H]1C(=O)N[C@@H](CS)C(=O)O)C(C)C (single isomer, unassigned)",830
24,Ac-DDAVPC-OH,580
25,H-GEAGDDIVPC-OH,52
26,"CC[C@H](C)[C@H](NC(=O)C(CC(=O)O)NC(=O)CCC(=O)O)C(=O)N[C@H](C(=O)N1CCC[C@H]1C(=O)N[C@@H](CS)C(=O)O)C(C)C (single isomer, unassigned)",76
27,CC[C@H](C)[C@H](NC(=O)[C@H](CC(=O)O)NC(=O)[C@@H](CC(=O)O)NC(C)=O)C(=O)N[C@H](C(=O)N1CCC[C@H]1C(=O)N[C@@H](CS)C(=O)O)C(C)C,40
28,CC[C@H](C)[C@H](NC(=O)[C@H](CC(=O)O)NC(=O)[C@H](CC(=O)O)NC(C)=O)C(=O)N[C@H](C(=O)N1CCC[C@H]1C(=O)N[C@H](C(=O)O)C(C)(C)S)C(C)C (Ac-DDIVP[Pen]-OH),630

# From ChEMBL document CHEMBL1130869, “Peptide-based inhibitors of the hepatitis C virus serine protease” (Bioorg Med Chem Lett, 1998)
